According to patent publication US20160137714A1 (Thrasos Innovation, Inc., priority 2014, published 2016):
Positions of bridges follow the written chain, without caps; N, C: chain ends. Non-standard residues stand in square brackets, D forms with d. Residues, ends and D or L forms follow the SMILES beside them. NMeR = CN[C@@H](CCCNC(=N)N)C(=O)O

Experiment: Ex-vivo plasma stability
Type: in vitro ADME, mouse or rat
Conditions: for remaining at 1 h / remaining at 2 h: fresh plasma 37° C., 1 μM; for remaining at 1 h: 60 min, read-out: Percent remaining 60 min; for remaining at 2 h: 120 min, read-out: Percent remaining 120 min; for stability toward plasma proteolytic cleavage: versus THR-123, rat plasma (FIGS. 3 and 4)
Method: Test article is added to fresh mouse or rat plasma at a final in-vial concentration of 1 μM. The peptide is incubated in a water bath at 37° C. over a time course that included the following points (in minutes): 0, 15, 30, 60, 120, 240, and 1440. After the incubation time is completed, a 50 μL aliquot of plasma is removed and proteins are precipitated using a solution containing internal standard (THR-123 at 150 ng/mL) in methanol with 0.5% acetic acid (v/v). The samples are centrifuged at 13,000 RPM for 5 minutes, and a 100 μL aliquot of supernatant is removed and transferred to a 96-well plate containing 200 μL of reconstitution solution (Water/MeOH/Acetic Acid/TFA, 60/40/0.2/0.05, v/v/v/v). A calibration curve and quality control (QC) samples are prepared in parallel in the same manner as the incubation samples. The calibration range for this assay is from 0.02 to 2.0 μM in rat or mouse plasma. The extracted calibrants, QC, and incubation samples are injected onto an AB SCIEX API 2000 LC-MS/MS system. Chromatographic separation is performed using a reversed-phase C18 HPLC column (Ace-3 C18, 30×2.1 mm, 3 μm). The solvent system consists of Milli-Q water, acetonitrile and formic acid. Analyte and internal standard are detected using the multiple reaction monitoring (MRM) scan mode. Calibration curves are generated by using a weighted (1/concentration) quadratic regression analysis of the peak area ratios (analyte/internal standard) versus the nominal concentration of the calibration standards. The concentration of the analyte in the incubation samples is determined by back-calculating the peak area ratios obtained using the quadratic regression.

Row | remaining at 1 h | remaining at 2 h | stability toward plasma proteolytic cleavage | Structure (SMILES)
1 | 1.5% | 0% |  | CC(C)C[C@@H]1NC(=O)[C@H](C(C)C)NC(=O)[C@H](CO)NC(=O)[C@H](CO)NC(=O)[C@H](CO)NC(=O)[C@H](CC(=O)O)NC(=O)[C@H](CC(=O)O)NC(=O)[C@H](Cc2ccc(O)cc2)NC(=O)[C@H](Cc2ccc(O)cc2)NC(=O)[C@@H](N)CSSC[C@@H](C(=O)N[C@@H](CCCCN)C(=O)N[C@@H](CCCCN)C(=O)N[C@@H](Cc2ccc(O)cc2)C(=O)N[C@@H](CCCNC(=N)N)C(=O)N[C@@H](CO)C(=O)O)NC1=O [GPR-267, Cys-Tyr-Tyr-Asp-Asp-Ser-Ser-Ser-Val-Leu-Cys-Lys-Lys-Tyr-Arg-Ser] (H-CYYDDSSSVLCKKYRS-OH; disulfide 1-11)
2 | 92.2% | 94.7% |  | CC(C)C[C@@H]1NC(=O)[C@H](C(C)C)NC(=O)[C@H](CO)NC(=O)[C@H](CO)NC(=O)[C@H](CO)NC(=O)[C@H](CC(=O)O)NC(=O)[C@H](CC(=O)O)NC(=O)[C@H](Cc2ccc(O)cc2)NC(=O)[C@H](Cc2ccc(O)cc2)NC(=O)[C@@H](N)CSSC[C@@H](C(=O)N[C@@H](CCCCN)C(=O)N[C@@H](CCCCN)C(=O)N[C@H](Cc2ccc(O)cc2)C(=O)N[C@@H](CCCNC(=N)N)C(=O)N[C@@H](CO)C(=O)O)NC1=O [GPR-295, Cys-Tyr-Tyr-Asp-Asp-Ser-Ser-Ser-Val-Leu-Cys-Lys-Lys-D-tyr-Arg-Ser] (H-CYYDDSSSVLCKK[dY]RS-OH; disulfide 1-11)
3 | 97.5% | 86.4% |  | CC(C)C[C@@H]1NC(=O)[C@H](C(C)C)NC(=O)[C@H](CO)NC(=O)[C@H](CO)NC(=O)[C@H](CO)NC(=O)[C@H](CC(N)=O)NC(=O)[C@H](CC(=O)O)NC(=O)[C@H](Cc2ccc(O)cc2)NC(=O)[C@H](Cc2ccc(O)cc2)NC(=O)[C@@H](N)CSSC[C@@H](C(=O)N[C@@H](CCCCN)C(=O)N[C@@H](CCCCN)C(=O)N[C@H](Cc2ccc(O)cc2)C(=O)N[C@@H](CCCNC(=N)N)C(=O)N[C@@H](CO)C(=O)O)NC1=O [GPR-296, Cys-Tyr-Tyr-Asp-Asn-Ser-Ser-Ser-Val-Leu-Cys-Lys-Lys-D-tyr-Arg-Ser] (H-CYYDNSSSVLCKK[dY]RS-OH; disulfide 1-11)

The remaining lines, values behind:

Row | Structure (SMILES) | remaining at 1 h | remaining at 2 h | stability toward plasma proteolytic cleavage
4 | CC(C)C[C@@H]1NC(=O)[C@H](C(C)C)NC(=O)[C@H](CO)NC(=O)[C@H](CO)NC(=O)[C@H](CO)NC(=O)[C@H](CC(N)=O)NC(=O)[C@H](CC(=O)O)NC(=O)[C@H](Cc2ccc(O)cc2)NC(=O)[C@H](Cc2ccc(O)cc2)NC(=O)[C@@H](N)CSSC[C@@H](C(=O)N[C@@H](CCCCN)C(=O)N[C@@H](CCCCN)C(=O)N[C@@H](Cc2ccc(O)cc2)C(=O)N[C@@H](CCCNC(=N)N)C(=O)N[C@@H](CO)C(=O)O)NC1=O [GPR-269, Cys-Tyr-Tyr-Asp-Asn-Ser-Ser-Ser-Val-Leu-Cys-Lys-Lys-Tyr-Arg-Ser] (H-CYYDNSSSVLCKKYRS-OH; disulfide 1-11) | 9.9% | 6.8% | 
5 | CC(C)C[C@@H]1NC(=O)[C@H](C(C)C)NC(=O)[C@H](CC(N)=O)NC(=O)[C@H](CO)NC(=O)[C@H](CO)NC(=O)[C@H](CC(=O)O)NC(=O)[C@H](CC(=O)O)NC(=O)[C@H](Cc2ccccc2)NC(=O)[C@H](Cc2ccc(O)cc2)NC(=O)[C@@H](N)CSSC[C@@H](C(=O)N[C@@H](CCCCN)C(=O)N[C@@H](CCCCN)C(=O)N[C@@H](Cc2ccc(O)cc2)C(=O)N(C)[C@@H](CCCNC(=N)N)C(=O)N[C@@H](CO)C(=O)O)NC1=O [GPR-396, Cys-Tyr-Phe-Asp-Asp-Ser-Ser-Asn-Val-Leu-Cys-Lys-Lys-Tyr-(Na-Me)Arg-Ser] (H-CYFDDSSNVLCKKY[NMeR]S-OH; disulfide 1-11) | 91% | 82.4% | enhanced
6 | CC(C)C[C@@H]1NC(=O)[C@H](C(C)C)NC(=O)[C@H](CC(N)=O)NC(=O)[C@H](CO)NC(=O)[C@H](CO)NC(=O)[C@H](CC(=O)O)NC(=O)[C@H](CC(=O)O)NC(=O)[C@H](Cc2ccccc2)NC(=O)[C@H](Cc2ccc(O)cc2)NC(=O)[C@@H](N)CSSC[C@@H](C(=O)N[C@@H](CCCCN)C(=O)N[C@@H](CCCNC(=N)N)C(=O)N[C@H](Cc2ccc(O)cc2)C(=O)N[C@@H](CCCNC(=N)N)C(=O)N[C@@H](CO)C(=O)O)NC1=O [GPR-397, Cys-Tyr-Phe-Asp-Asp-Ser-Ser-Asn-Val-Leu-Cys-Lys-Arg-D-tyr-Arg-Ser] (H-CYFDDSSNVLCKR[dY]RS-OH; disulfide 1-11) | 92% | 89.3% | 
7 | CC(C)C[C@@H]1NC(=O)[C@H](C(C)C)NC(=O)[C@H](CO)NC(=O)[C@H](CO)NC(=O)[C@H](CO)NC(=O)[C@H](CC(N)=O)NC(=O)[C@H](CC(=O)O)NC(=O)[C@H](Cc2ccc(O)cc2)NC(=O)[C@H](Cc2ccc(O)cc2)NC(=O)[C@@H](N)CSSC[C@@H](C(=O)N[C@@H](CCCCN)C(=O)N[C@@H](CCCNC(=N)N)C(=O)N[C@@H](Cc2ccc(O)cc2)C(=O)N[C@@H](CCCNC(=N)N)C(=O)N[C@@H](CO)C(=O)O)NC1=O [GPR-259, Cys-Tyr-Tyr-Asp-Asn-Ser-Ser-Ser-Val-Leu-Cys-Lys-Arg-Tyr-Arg-Ser] (H-CYYDNSSSVLCKRYRS-OH; disulfide 1-11) | 4% | 2.5% | 
8 | CC(C)C[C@@H]1NC(=O)[C@H](C(C)C)NC(=O)[C@H](CC(N)=O)NC(=O)[C@H](CO)NC(=O)[C@H](CO)NC(=O)[C@H](CC(=O)O)NC(=O)[C@H](CC(=O)O)NC(=O)[C@H](Cc2ccccc2)NC(=O)[C@H](Cc2ccc(O)cc2)NC(=O)[C@@H](N)CSSC[C@@H](C(=O)N[C@@H](CCCCN)C(=O)N[C@@H](CCCCN)C(=O)N[C@@H](Cc2ccc(O)cc2)C(=O)N[C@H](CCCNC(=N)N)C(=O)N[C@@H](CO)C(=O)O)NC1=O [GPR-389, Cys-Tyr-Phe-Asp-Asp-Ser-Ser-Asn-Val-Leu-Cys-Lys-Lys-Tyr-D-arg-Ser] (H-CYFDDSSNVLCKKY[dR]S-OH; disulfide 1-11) | 58.5% | 46.1% | enhanced
9 | CC(C)C[C@@H]1NC(=O)[C@H](C(C)C)NC(=O)[C@H](CO)NC(=O)[C@H](CO)NC(=O)[C@H](CO)NC(=O)[C@H](CC(N)=O)NC(=O)[C@H](CC(=O)O)NC(=O)[C@H](Cc2ccc(O)cc2)NC(=O)[C@H](Cc2ccc(O)cc2)NC(=O)[C@@H](N)CSSC[C@@H](C(=O)N[C@@H](CCCCN)C(=O)N[C@@H](CCCNC(=N)N)C(=O)N[C@H](Cc2ccc(O)cc2)C(=O)N[C@@H](CCCNC(=N)N)C(=O)N[C@@H](CO)C(=O)O)NC1=O [GPR-279, Cys-Tyr-Tyr-Asp-Asn-Ser-Ser-Ser-Val-Leu-Cys-Lys-Arg-D-tyr-Arg-Ser] (H-CYYDNSSSVLCKR[dY]RS-OH; disulfide 1-11) | 89.1% | 77.8% | 
10 | CC(C)C[C@@H]1NC(=O)[C@H](C(C)C)NC(=O)[C@H](CO)NC(=O)[C@H](CO)NC(=O)[C@H](CO)NC(=O)[C@H](CC(N)=O)NC(=O)[C@H](CC(=O)O)NC(=O)[C@H](Cc2ccc(O)cc2)NC(=O)[C@H](Cc2ccc(O)cc2)NC(=O)[C@@H](N)CSSC[C@@H](C(=O)N[C@@H](CCCCN)C(=O)N[C@@H](CCCNC(=N)N)C(=O)N[C@@H](Cc2ccc(O)cc2)C(=O)N(C)[C@@H](CCCNC(=N)N)C(=O)N[C@@H](CO)C(=O)O)NC1=O [GPR-398, Cys-Tyr-Tyr-Asp-Asn-Ser-Ser-Ser-Val-Leu-Cys-Lys-Arg-Tyr-(Nα-Me)Arg-Ser] (H-CYYDNSSSVLCKRY[NMeR]S-OH; disulfide 1-11) | 79.2% | 68.1% | 
